Results published in patent US5298494A, “Monosaccharides having anti-proliferation and anti-inflammatory activity, compositions and uses thereof” (Greenwich Pharmaceuticals Incorporated, priority 1993, dated 1994).

Legend:
[1] = tested on: T cell proliferation in mouse spleen cell mixed lymphocyte cultures; assay: Mixed Lymphocyte Reaction (MLR) assay; type: cell-based, mouse (Balb/c responder, C57B1/6 stimulator); details: for inhibition at 3 µM / inhibition at 10 µM / inhibition at 30 µM / inhibition at 100 µM / inhibition at 300 µM: Mus musculus, Lymphocyte, read-out: % Change From Control, MLR
Outline: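 Balb/c responder spleen cells (2.5×10^5) co-cultured with mitomycin C-treated C57Bl/6 stimulators (5×10^5) for 5 days at 37 C with compound dilutions of 3–300 uM or DMSO. Proliferation read by MTT (OD 570-650 nm). Allogeneic minus syngeneic means were expressed as % change from vehicle control.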

[2] = tested on: LTB4 production by BUD-8 skin cell fibroblasts; assay: LTB4 production by BUD-8 skin cell fibroblasts (radioimmunoassay); type: cell-based, human
Procedure: The effect of the compound of the present invention on the proliferative capacity of human BUD-8 skin fibroblasts was measured with the use of a ^3 H-thymidine incorporation assay using culture conditions which were similar to those used for a Con-A blastogenesis assay, described previously. Cultured skin cells were detached from the surface of tissue culture flasks mechanically with a Teflon scraper. The cells were washed, resuspended in incubation medium and the viabilities were determined. These cells were then plated in triplicate at a density of 2×10^3 cells/0.1 ml/microtiter well for the proliferation assay and a density of 1×10^4 cells/0.1 ml/microtiter well for the assays to quantitate PGE2 and LTB4. To these cells was added incubation medium containing indomethacin to inhibit prostaglandin production, or nordihydroguaiaretic acid (NDGA) to inhibit leukotriene production (positive controls).
After 18 hours of culture, samples of the BUD-8 skin cell supernatants were collected from one set of microtiter plates and frozen until assayed for PGE2 or for LTB4 content using the radioimmunoassays described below.
Levels of LTB4 in aliquots of BUD-8 skin cell cultures supernatants were quantitated by radioimmunoassay (New England Nuclear). Briefly, into each polyproplyene tube were mixed 0.1 ml anti-LTB4, 0.1. ml ^3 H-LTB4 and 0.1 ml LTB4 standard or LTB4 containing sample. The BUD-8 skin cell culture supernatants were used directly in the radioimmunoassay. Tubes were refrigerated overnight. A charcoal solution (0.5 ml of 0.5% charcoal Norit A) was added and each tube was centrifuged. The radioactivity in the supernatant was then counted in a liquid scintillation counter.

With `CC1(C)OC2OC(C(O)COCCCc3ccccc3)C(O)C2O1` [IIIe, 1,2-O-Isopropylidene-6-O-3'-(phenylpropyl)-α-D-glucofuranose] the “Mean O.D. Allogenic” value ([1]; 3 um) was 0.174 O.D, the “Mean O.D. Syngeneic” value ([1]; 3 um) was 0.052 O.D and the “Mean O.D. Allogenic” value ([1]; 10 um) was 0.122 O.D. For the same molecule, the “Mean O.D. Syngeneic” value ([1]; 10 um) was 0.081 O.D, the “Mean O.D. Allogenic” value ([1]; 30 um) was 0.084 O.D and the “Mean O.D. Syngeneic” value ([1]; 30 um) was 0.066 O.D. For the same molecule, the “Mean O.D. Allogenic” value ([1]; 100 um) was 0.034 O.D, the “Mean O.D. Syngeneic” value ([1]; 100 um) was 0.024 O.D and the “Mean O.D. Allogenic” value ([1]; 300 um) was 0.009 O.D. For the same molecule, the “Mean O.D. Syngeneic” value ([1]; 300 um) was 0.010 O.D, the inhibition at 3 µM ([1]; 3 um) was 19% and the inhibition at 10 µM ([1]; 10 um) was 73%. The inhibition at 30 µM ([1]; 30 um) was 88%, the inhibition at 100 µM ([1]; 100 um) was 93% and the inhibition at 300 µM ([1]; 300 um) was 101%.
With `CN1CCCC1CCNC[C@H]1OC(C)(C)O[C@@H]2[C@H]3OC(C)(C)O[C@H]3O[C@@H]21` (stereo partly shown) [IIIi] the “effect on MLR in words” value [1] was “strong non dose dependent inhibition of T lymphocyte proliferation”, the “Mean O.D. Allogenic” value ([1]; 3 um) was 0.128 O.D and the “Mean O.D. Syngeneic” value ([1]; 3 um) was 0.090 O.D. The “Mean O.D. Allogenic” value ([1]; 10 um) was 0.180 O.D, the “Mean O.D. Syngeneic” value ([1]; 10 um) was 0.102 O.D and the “Mean O.D. Allogenic” value ([1]; 30 um) was 0.165 O.D. For the same molecule, the “Mean O.D. Syngeneic” value ([1]; 30 um) was 0.078 O.D, the “Mean O.D. Allogenic” value ([1]; 100 um) was 0.095 O.D and the “Mean O.D. Syngeneic” value ([1]; 100 um) was 0.066 O.D. For the same molecule, the “Mean O.D. Allogenic” value ([1]; 300 um) was 0.019 O.D, the “Mean O.D. Syngeneic” value ([1]; 300 um) was 0.030 O.D and the inhibition at 3 µM ([1]; 3 um) was 15%. It also gave an inhibition at 10 µM ([1]; 10 um) of 48%, an inhibition at 30 µM ([1]; 30 um) of 42% and an inhibition at 100 µM ([1]; 100 um) of 81%. For the same molecule, the inhibition at 300 µM ([1]; 300 um) was 107%.
For `CCCCCCCOCCCO[C@@H]1[C@H]2OC(C)(C)O[C@H]2O[C@@H]1[C@H](O)CO` [IIg], the “concentrations with significantly decreased LTB4 levels” value [2] was 1 to 100 µg/mL, the “LTB4 in supernatant (Table XIII)” value ([2]; 1 ug/ml) was 32.2 ± 1.9 pg LTB4 /1000 ul supernatant and the “calculated LTB4 produced/10^5 BUD-8 cells” value ([2]; 1 ug/ml) was 619 pg per 10^5 cells. The “LTB4 in supernatant (Table XIII)” value ([2]; 10 ug/ml) was 28.8 ± 1.4 pg LTB4 /1000 ul supernatant, the “calculated LTB4 produced/10^5 BUD-8 cells” value ([2]; 10 ug/ml) was 550 pg per 10^5 cells and the “LTB4 in supernatant (Table XIII)” value ([2]; 25 ug/ml) was 23.7 ± 0.5 pg LTB4 /1000 ul supernatant. For the same molecule, the “calculated LTB4 produced/10^5 BUD-8 cells” value ([2]; 25 ug/ml) was 447 pg per 10^5 cells, the “LTB4 in supernatant (Table XIII)” value ([2]; 100 ug/ml) was 27.3 ± 2.6 pg LTB4 /1000 ul supernatant and the “calculated LTB4 produced/10^5 BUD-8 cells” value ([2]; 100 ug/ml) was 520 pg per 10^5 cells. The “LTB4 in supernatant (Table XIII)” value ([2]; 300 ug/ml) was 24.5 ± 2.8 pg LTB4 /1000 ul supernatant, the “LTB4 in supernatant (Table XIII)” value ([2]; 750 ug/ml) was 19.3 ± 1.9 pg LTB4 /1000 ul supernatant and the inhibition at 1 µg/mL ([2]; Homo sapiens, Fibroblast, 18 h, 1 ug/ml, read-out: % Effect on LTB4 production) was 17%. For the same molecule, the inhibition at 10 µg/mL ([2]; Homo sapiens, Fibroblast, 18 h, 10 ug/ml, read-out: % Effect on LTB4 production) was 26%, the inhibition at 25 µg/mL ([2]; Homo sapiens, Fibroblast, 18 h, 25 ug/ml, read-out: % Effect on LTB4 production) was 39% and the inhibition at 100 µg/mL ([2]; Homo sapiens, Fibroblast, 18 h, 100 ug/ml, read-out: % Effect on LTB4 production) was 30%. For the same molecule, the inhibition at 300 µg/mL ([2]; Homo sapiens, Fibroblast, 18 h, 300 ug/ml, read-out: % Effect on LTB4 production) was 37%, the inhibition at 750 µg/mL ([2]; Homo sapiens, Fibroblast, 18 h, 750 ug/ml, read-out: % Effect on LTB4 production) was 50% and the “% Change From Control, MLR” value ([1]; Table X, 3 ugm) was -61%. For the same molecule, the “% Change From Control, MLR” value ([1]; Table X, 10 ugm) was -15%, the “Mean O.D. Allogenic” value ([1]; Table X, 10 ugm) was 0.197 O.D and the “Mean O.D. Syngeneic” value ([1]; Table X, 10 ugm) was 0.070 O.D. For the same molecule, the “% Change From Control, MLR” value ([1]; Table X, 30 ugm) was -36%, the “Mean O.D. Allogenic” value ([1]; Table X, 30 ugm) was 0.171 O.D and the “Mean O.D. Syngeneic” value ([1]; Table X, 30 ugm) was 0.075 O.D. The “% Change From Control, MLR” value ([1]; Table X, 100 ugm) was -101%, the “% Change From Control, MLR” value ([1]; Table X, 300 ugm) was -97% and the “strong non-dose dependent inhibition in MLR” value ([1]; several concentrations) was “greater than -50 % of control”.
In the case of `CCCCCCCOC[C@H]1O[C@@]2(OC)COC(C)(C)O[C@H]2[C@@H]1O` [Ia, methyl 1,3-O-isopropylidene-6-O-heptyl-α-D-fructofuranoside], the “Mean O.D. Allogenic” value ([1]; 3 um) is reported as 0.375 O.D, the “Mean O.D. Syngeneic” value ([1]; 3 um) is reported as 0.193 O.D and the “Mean O.D. Allogenic” value ([1]; 10 um) is reported as 0.361 O.D. For the same molecule, the “Mean O.D. Syngeneic” value ([1]; 10 um) was 0.175 O.D, the “Mean O.D. Allogenic” value ([1]; 30 um) was 0.334 O.D and the “Mean O.D. Syngeneic” value ([1]; 30 um) was 0.167 O.D. For the same molecule, the “Mean O.D. Allogenic” value ([1]; 100 um) was 0.429 O.D, the “Mean O.D. Syngeneic” value ([1]; 100 um) was 0.192 O.D and the “Mean O.D. Allogenic” value ([1]; 300 um) was 0.162 O.D. For the same molecule, the “Mean O.D. Syngeneic” value ([1]; 300 um) was 0.107 O.D, the inhibition at 3 µM ([1]; 3 um) was 5% and the inhibition at 10 µM ([1]; 10 um) was 3%. For the same molecule, the inhibition at 30 µM ([1]; 30 um) was 13%, the inhibition at 100 µM ([1]; 100 um) was -23% and the inhibition at 300 µM ([1]; 300 um) was 71%.
`CCCCC/C=C/COC[C@H]1O[C@@]2(OC)COC(C)(C)O[C@H]2[C@@H]1OC/C=C/CCCCC` [Ie, methyl 1,3-O-isopropylidene-4,6-di-O-(trans,2-octenyl)-α-D-fructofuranoside] was tested, and the “Mean O.D. Allogenic” value ([1]; 3 um) was 0.341 O.D, the “Mean O.D. Syngeneic” value ([1]; 3 um) was 0.133 O.D and the “Mean O.D. Allogenic” value ([1]; 10 um) was 0.318 O.D. The “Mean O.D. Syngeneic” value ([1]; 10 um) was 0.130 O.D, the “Mean O.D. Allogenic” value ([1]; 30 um) was 0.266 O.D and the “Mean O.D. Syngeneic” value ([1]; 30 um) was 0.178 O.D. For the same molecule, the “Mean O.D. Allogenic” value ([1]; 100 um) was 0.216 O.D, the “Mean O.D. Syngeneic” value ([1]; 100 um) was 0.146 O.D and the “Mean O.D. Allogenic” value ([1]; 300 um) was 0.152 O.D. The “Mean O.D. Syngeneic” value ([1]; 300 um) was 0.082 O.D, the inhibition at 3 µM ([1]; 3 um) was -8% and the inhibition at 10 µM ([1]; 10 um) was 2%. The inhibition at 30 µM ([1]; 30 um) was 54%, the inhibition at 100 µM ([1]; 100 um) was 64% and the inhibition at 300 µM ([1]; 300 um) was 64%.
